Where two headings read alike, the source gives them in different places.
Legend:
[1] = molecular target: T1, baculovirus-expressed ALK (Homo sapiens, UniProt Q9UM73); experiment: ALK Kinase Assay (ELISA-type, time-resolved fluorescence); format: biochemical
T1 construct: host or cells: baculovirus expression system
Method in brief: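 Substrate coating: phospholipase C-γ, 10 μg/mL in TBS. Kinase step: 30 ng/ml ALK, 15 min, 37° C. Detection and analysis: Eu-N1 PT66 antibody, with IC50 fitted as a sigmoidal variable-slope dose-response curve.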

[2] = molecular target: T2, c-Met (cytoplasmic domain) (Homo sapiens, UniProt P08581); experiment: c-Met Kinase Assay (same methods as for ALK, with modifications); format: biochemical
T2 construct: 10 ng/mL c-Met (cytoplasmic domain, Invitrogen Corporation #PV3143); purchased Invitrogen Corporation PV3143
T2 sequence (P08581 956-1390 limits assumed): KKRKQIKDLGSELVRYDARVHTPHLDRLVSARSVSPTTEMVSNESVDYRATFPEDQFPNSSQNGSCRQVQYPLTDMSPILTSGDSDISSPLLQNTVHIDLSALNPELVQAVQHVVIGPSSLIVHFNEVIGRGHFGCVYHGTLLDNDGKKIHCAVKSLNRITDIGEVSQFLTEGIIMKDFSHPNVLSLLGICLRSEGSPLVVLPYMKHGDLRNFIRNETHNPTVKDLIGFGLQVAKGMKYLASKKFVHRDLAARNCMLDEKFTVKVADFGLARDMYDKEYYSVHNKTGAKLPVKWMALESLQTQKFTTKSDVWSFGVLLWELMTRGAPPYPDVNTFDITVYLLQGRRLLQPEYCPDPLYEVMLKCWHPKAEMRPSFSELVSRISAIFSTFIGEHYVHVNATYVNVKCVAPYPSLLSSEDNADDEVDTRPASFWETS
Method in brief: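 This plate-based kinase format uses immobilized phospholipase C-γ as substrate, phosphorylated by c-Met cytoplasmic domain (10 ng/mL) at 37° C for 15 minutes.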

[3] = ALK kinase inhibition, 1 μM ATP (Km level), read-out: ALK Activity
[4] = c-Met kinase inhibition, 1 μM ATP (Km level), read-out: cMet Activity
[5] = 1 μM ATP (Km level), read-out: ALK Activity (ALK Kinase Inhibition, IC50)
[6] = 1 μM ATP (Km level), read-out: cMet Activity (c-Met Kinase Inhibition, IC50)
[7] = ALK kinase inhibition, 1 μM ATP, read-out: ALK Activity
[8] = c-Met kinase inhibition, 1 μM ATP, read-out: cMet Activity
[9] = 1 μM ATP (Km level), 30 ng/ml ALK, 37° C., 15 minutes, read-out: ALK Activity (ALK kinase inhibition, IC50 class)
[10] = 1 μM ATP (Km level), 10 ng/mL c-Met, read-out: cMet Activity (c-Met kinase inhibition, IC50 class)

T1 sequence (Q9UM73 19-1620): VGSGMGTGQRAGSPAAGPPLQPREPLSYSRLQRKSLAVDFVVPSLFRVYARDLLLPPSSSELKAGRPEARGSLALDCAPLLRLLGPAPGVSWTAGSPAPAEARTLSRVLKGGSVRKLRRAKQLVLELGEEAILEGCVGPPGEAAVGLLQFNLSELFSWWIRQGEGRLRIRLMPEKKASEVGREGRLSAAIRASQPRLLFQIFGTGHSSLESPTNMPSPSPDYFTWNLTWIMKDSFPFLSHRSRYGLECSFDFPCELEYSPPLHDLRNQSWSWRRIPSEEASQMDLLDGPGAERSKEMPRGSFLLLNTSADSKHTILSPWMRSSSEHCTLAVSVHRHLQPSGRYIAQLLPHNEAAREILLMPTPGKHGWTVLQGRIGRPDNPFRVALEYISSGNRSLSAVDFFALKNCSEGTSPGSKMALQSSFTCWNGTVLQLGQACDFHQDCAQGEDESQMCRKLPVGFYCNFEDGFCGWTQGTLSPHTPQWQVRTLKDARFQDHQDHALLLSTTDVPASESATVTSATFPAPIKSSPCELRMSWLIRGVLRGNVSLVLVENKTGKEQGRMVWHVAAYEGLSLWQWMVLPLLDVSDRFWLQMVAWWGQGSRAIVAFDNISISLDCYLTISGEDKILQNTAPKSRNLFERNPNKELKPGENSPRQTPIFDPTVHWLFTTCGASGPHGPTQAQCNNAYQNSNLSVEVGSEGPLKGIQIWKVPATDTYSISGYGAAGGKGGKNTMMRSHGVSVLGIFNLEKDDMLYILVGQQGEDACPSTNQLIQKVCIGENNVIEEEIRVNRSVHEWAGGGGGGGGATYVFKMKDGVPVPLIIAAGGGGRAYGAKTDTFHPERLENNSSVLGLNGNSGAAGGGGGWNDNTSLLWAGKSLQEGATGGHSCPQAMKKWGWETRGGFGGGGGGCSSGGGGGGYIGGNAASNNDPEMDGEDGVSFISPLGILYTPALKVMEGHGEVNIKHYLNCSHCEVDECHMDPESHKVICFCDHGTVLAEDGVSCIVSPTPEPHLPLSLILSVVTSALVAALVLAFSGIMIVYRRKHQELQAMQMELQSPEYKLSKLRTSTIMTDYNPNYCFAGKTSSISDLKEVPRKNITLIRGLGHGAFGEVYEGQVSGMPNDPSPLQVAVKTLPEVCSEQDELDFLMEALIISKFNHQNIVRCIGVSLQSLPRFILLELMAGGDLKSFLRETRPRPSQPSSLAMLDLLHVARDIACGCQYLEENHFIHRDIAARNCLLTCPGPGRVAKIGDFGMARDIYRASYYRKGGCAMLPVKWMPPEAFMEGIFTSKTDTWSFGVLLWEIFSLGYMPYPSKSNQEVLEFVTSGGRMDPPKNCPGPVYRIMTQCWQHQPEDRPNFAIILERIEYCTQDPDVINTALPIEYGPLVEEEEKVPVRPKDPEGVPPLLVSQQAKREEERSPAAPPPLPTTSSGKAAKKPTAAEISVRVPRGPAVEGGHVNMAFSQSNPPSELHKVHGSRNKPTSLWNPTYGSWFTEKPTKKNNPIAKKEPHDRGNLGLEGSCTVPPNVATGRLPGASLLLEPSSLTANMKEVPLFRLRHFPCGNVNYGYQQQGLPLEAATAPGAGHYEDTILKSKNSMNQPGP

| Compound | IC50 [1, 3] | IC50 [2, 4] | further results |
| --- | --- | --- | --- |
| CNC(=O)c1cccc(C)c1Nc1nc(Nc2ccc3c(c2)C(=O)NCCC3)ncc1Cl [Example 401, 2-[5-Chloro-2-(1-oxo-2,3,4,5-tetrahydro-1H-benzo[c]azepin-8-ylamino)-pyrimidin-4-ylamino]-3,N-dimethyl-benzamide] | > 10 µM | 0.1 to 1 µM |  |
| CCN1CCN(CC)c2cc(Nc3ncc(Cl)c(N[C@@H]4CCCC[C@H]4NS(C)(=O)=O)n3)ccc2C1=O [Example 424, N-{(1R,2R)-2-[5-Chloro-2-(1,4-diethyl-5-oxo-2,3,4,5-tetrahydro-1H-benzo[e][1,4]diazepin-8-ylamino)-pyrimidin-4-ylamino]-cyclohexyl}-methanesulfonamide] | < 0.1 µM | 1 to 10 µM |  |
| CS(=O)(=O)N[C@@H]1CCCC[C@H]1Nc1nc(Nc2cccc3c2OCCCC3)ncc1Cl [Example 863, N-{(1R,2R)-2-[5-Chloro-2-(2,3,4,5-tetrahydro-benzo[b]oxepin-9-ylamino)pyrimidin-4-ylamino]-cyclohexyl}-methanesulfonamide] |  |  | IC50 [1, 5]: < 0.1 µM; IC50 [2, 6]: > 10 µM |
| COc1cc2c(cc1Nc1ncc(Cl)c(N[C@@H]3CCCC[C@H]3NS(C)(=O)=O)n1)CCN(CC(C)(F)F)CC2 [Example 784, N-((1R,2R)-2-{5-Chloro-2-[3-(2,2-difluoro-propyl)-8-methoxy-2,3,4,5-tetrahydro-1H-benzo[d]azepin-7-ylamino]-pyrimidin-4-ylamino}-cyclohexyl)-methanesulfonamide] |  |  | IC50 [1, 5]: < 0.1 µM; IC50 [2, 6]: > 10 µM |
| COCCN1C2CCC1c1cc(Nc3ncc(Cl)c(Nc4ccccc4NS(C)(=O)=O)n3)ccc1C2 (stereo not drawn) [Example 76, N-(2-{5-Chloro-2-[12-(2-methoxy-ethyl)-12-aza-tricyclo[7.2.1.0*2,7*]dodeca-2(7),3,5-trien-4-ylamino]-pyrimidin-4-ylamino}-phenyl)-methanesulfonamide] | < 0.1 µM | 0.1 to 1 µM |  |
| CCN1C(=O)CCCc2c1ccc(Nc1ncc(Cl)c(N[C@@H]3CCC[C@H]3NS(C)(=O)=O)n1)c2OC (relative stereo) [Example 374, N-{trans-2-[5-Chloro-2-(1-ethyl-6-methoxy-2-oxo-2,3,4,5-tetrahydro-1H-benzo[b]azepin-7-ylamino)-pyrimidin-4-ylamino]-cyclopentyl}-methanesulfonamide] | 0.1 to 1 µM | > 10 µM |  |
| CCC(C)N1C2CCC1c1cc(Nc3ncc(Cl)c(N[C@@H]4CCCC[C@H]4NS(C)(=O)=O)n3)ccc1C2 (mixture of isomers) [Example 84, N-{(1R,2R)-2-[2-(12-sec-Butyl-12-aza-tricyclo[7.2.1.0*2,7*]dodeca-2(7),3,5-trien-4-ylamino)-5-chloro-pyrimidin-4-ylamino]-cyclohexyl}-methanesulfonamide] | < 0.1 µM | 0.1 to 1 µM |  |
| CC1(C)CCC(=O)Nc2ccc(Nc3ncc(Cl)c(Nc4ccccc4-c4ncc[nH]4)n3)cc21 [Example 220, 7-{5-Chloro-4-[2-(1H-imidazol-2-yl)-phenylamino]-pyrimidin-2-ylamino}-5,5-dimethyl-1,3,4,5-tetrahydro-benzo[b]azepin-2-one] | < 0.1 µM | 1 to 10 µM |  |
| CCN1C(=O)CCC(C)(C)c2ccc(Nc3ncc(Cl)c(N[C@H]4[C@@H](C(N)=O)[C@@H]5C=C[C@H]4C5)n3)cc21 [Example 1586, (1S,2S,3R,4R)-3-[5-Chloro-2-(1-ethyl-5,5-dimethyl-2-oxo-2,3,4,5-tetrahydro-1H-benzo[b]azepin-8-ylamino)-pyrimidin-4-ylamino]-bicyclo[2.2.1]hept-5-ene-2-carboxylic acid amide] |  |  | IC50 [1, 7]: < 0.1 µM; IC50 [2, 8]: < 0.1 µM |
| CCN1CC2CCC(C1)c1cc(Nc3ncc(Cl)c(Nc4ccccc4C(=O)NC)n3)ccc12 (stereo not drawn) [Example 271, 2-[5-Chloro-2-(10-ethyl-10-aza-tricyclo[6.3.2.0*2,7*]trideca-2,4,6-trien-4-ylamino)-pyrimidin-4-ylamino]-N-methyl-benzamide] | < 0.1 µM | < 0.1 µM |  |
| CNC(=O)c1ccccc1Nc1nc(Nc2ccc3c(c2)N(C)C(=O)CCC3)ncc1Cl [Example 108, 2-[5-Chloro-2-(1-methyl-2-oxo-2,3,4,5-tetrahydro-1H-benzo[b]azepin-8-ylamino)-pyrimidin-4-ylamino]-N-methyl-benzamide] | < 0.1 µM | < 0.1 µM |  |
| (1S,2S,3R,4R)-3-[2-(3-Carbamoylmethyl-8-methoxy-2,3,4,5-tetrahydro-1H-benzo[d]azepin-7-ylamino)-5-chloro-pyrimidin-4-ylamino]-bicyclo[2.2.1]hept-5-ene-2-carboxylic acid amide [Example 813] |  |  | IC50 [1, 5]: < 0.1 µM; IC50 [2, 6]: > 10 µM |
| CCNC(=O)c1cccc(F)c1Nc1nc(Nc2ccc3c(c2)CCN(CC(=O)NC)CC3)ncc1Cl [Example 1372, 2-[5-Chloro-2-(3-methylcarbamoylmethyl-2,3,4,5-tetrahydro-1H-benzo[d]azepin-7-ylamino)-pyrimidin-4-ylamino]-N-ethyl-3-fluoro-benzamide] |  |  | IC50 [1, 9]: < 0.1 µM; IC50 [2, 10]: < 0.1 µM |
| CNC(=O)c1ccccc1Nc1nc(Nc2ccc3c(c2)C2CCC(C3)N2C(C)C)ncc1Cl (stereo not drawn) [Example 80, 2-[5-Chloro-2-(12-isopropyl-12-aza-tricyclo[7.2.1.0*2,7*]dodeca-2(7),3,5-trien-4-ylamino)-pyrimidin-4-ylamino]-N-methyl-benzamide] | < 0.1 µM | < 0.1 µM |  |
| 3-{5-Chloro-2-[3-(2-methoxy-ethyl)-2,3,4,5-tetrahydro-1H-benzo[d]azepin-7-ylamino]-pyrimidin-4-ylamino}-4-methyl-thiophene-2-carboxylic acid methylamide [Example 1363] |  |  | IC50 [1, 9]: < 0.1 µM; IC50 [2, 10]: < 0.1 µM |
| CCN1C(=O)C(C)(C)CCc2c1ccc(Nc1ncc(Cl)c(Nc3ccccc3C(=O)NC)n1)c2OC [Example 144, 2-[5-Chloro-2-(1-ethyl-6-methoxy-3,3-dimethyl-2-oxo-2,3,4,5-tetrahydro-1H-benzo[b]azepin-7-ylamino)-pyrimidin-4-ylamino]-N-methyl-benzamide] | < 0.1 µM | 1 to 10 µM |  |
| CNC(=O)c1ccccc1Nc1nc(Nc2ccc3c(c2)OCCNC3=O)ncc1Cl [Example 512, 2-[5-Chloro-2-(5-oxo-2,3,4,5-tetrahydro-benzo[f][1,4]oxazepin-8-ylamino)-pyrimidin-4-ylamino]-N-methyl-benzamide] |  |  | IC50 [1, 5]: < 0.1 µM; IC50 [2, 6]: < 0.1 µM |
| CNS(=O)(=O)c1ccccc1Nc1nc(Nc2ccc3c(c2)CCCC(=O)N3CC(=O)OC)ncc1Cl [Example 8, {7-[5-Chloro-4-(2-methylsulfamoyl-phenylamino)-pyrimidin-2-ylamino]-2-oxo-2,3,4,5-tetrahydro-benzo[b]azepin-1-yl}-acetic acid methyl ester] | < 0.1 µM | < 0.1 µM |  |
| COCCN1CCc2ccc(Nc3ncc(Cl)c(Nc4ccccc4-c4ncccn4)n3)cc2CC1 [Example 977, 5-Chloro-N*2*-[3-(2-methoxy-ethyl)-2,3,4,5-tetrahydro-1H-benzo[d]azepin-7-yl]-N*4*-(2-pyrimidin-2-yl-phenyl)-pyrimidine-2,4-diamine] |  |  | IC50 [1, 5]: < 0.1 µM; IC50 [2, 6]: 0.1 to 1 µM |
| C#CCN1CCN(C)c2cc(Nc3ncc(Cl)c(Nc4ccccc4C(=O)NC)n3)ccc2C1 [Example 487, 2-[5-Chloro-2-(1-methyl-4-prop-2-ynyl-2,3,4,5-tetrahydro-1H-benzo[e][1,4]diazepin-8-ylamino)-pyrimidin-4-ylamino]-N-methyl-benzamide] | < 0.1 µM | < 0.1 µM |  |
| CC(C)S(=O)(=O)c1cccc(F)c1Nc1nc(Nc2ccc3c(c2)NC(=O)CCC3(C)C)ncc1Cl [Example 1251, 8-{5-Chloro-4-[2-fluoro-6-(propane-2-sulfonyl)-phenylamino]-2-ylamino}-5,5-dimethyl-1,3,4,5-tetrahydro-1-benzazepin-2-one] |  |  | IC50 [1, 9]: 0.1 to 1 µM; IC50 [2, 10]: 1 to 10 µM |
| CCNC(=O)c1cccc(F)c1Nc1nc(Nc2ccc3c(c2)NC(=O)CCC3(C)C)ncc1Cl [Example 1575, 2-[5-Chloro-2-(5,5-dimethyl-2-oxo-2,3,4,5-tetrahydro-1H-benzo[b]azepin-8-ylamino)-pyrimidin-4-ylamino]-N-ethyl-3-fluoro-benzamide] |  |  | IC50 [1, 7]: < 0.1 µM; IC50 [2, 8]: < 0.1 µM |
| COc1cc2c(cc1Nc1ncc(Cl)c(Nc3ccccc3S(=O)(=O)C(C)C)n1)CCN(CCN1CCOCC1)CC2 [Example 1534, 5-Chloro-N(2)-[8-methoxy-3-(2-morpholin-4-yl-ethyl)-2,3,4,5-tetrahydro-1H-3-benzazepin-7-yl]-N(4)-[2-(propane-2-sulfonyl)-phenyl]-pyrimidine-2,4-diamine] |  |  | IC50 [1, 7]: < 0.1 µM; IC50 [2, 8]: > 10 µM |
| COCCN1CCc2ccc(Nc3ncc(Cl)c(N[C@@H]4CCC[C@@H](NS(C)(=O)=O)C4)n3)cc2CC1 (relative stereo) [Example 1379, rel-N-((1R,3R)-3-{5-Chloro-2-[3-(2-methoxy-ethyl)-2,3,4,5-tetrahydro-1H-benzo[d]azepin-7-ylamino]-pyrimidin-4-ylamino}-cyclohexyl)-methanesulfonamide] |  |  | IC50 [1, 9]: 1 to 10 µM; IC50 [2, 10]: 1 to 10 µM |

Source: patent US8148391B2 (Cephalon, Inc., priority 2006, dated 2012)
